Series [1] deals with BY2, NT1, Petite Havana (PH) and Xanthi (Xan) and Jimson Weed (JM) Suspension Cells. Briefly: Effects of tubulin inhibitors on growth and cell separation, all suspension types tested. In kind it is cell-based. From the text:
BY2 suspension-cultured cells were obtained from Japan tobacco and maintained in LSBY2 medium in a 7 day cycle. Jimsonweed suspension and Pettite Havana tobacco suspensions were initiated from callus initiated at DAS and Xanthi suspensions were procured as a sample from Professor Jack Widholm from UIUC, IL. JT-NT1 suspension cells, obtained from Washington University that are maintained in NT1B medium in 7 day cycle were used only for the pectin degradation enzyme study to separate the cells into single cells. The cells were cultured in shake flasks at 25-28° C. in dark on orbital shakers at 150 rpm. […] Stock concentrations of both the tubulin polymerization inhibitors used in this investigation were dissolved in DMSO to prepare a 0.5 M stock solution. The concentration tested for the pectinase and pectolyase enzymes were in the range of 0.0005% to 0.005%. […] NT-1 cells were originally developed from Nicotiana tabacum L. cv. bright yellow 2.
Cell expansion and separation were observed by light microscopy (with Nomarski and dark field optics). Spherical cells and single cells were counted by using a hemacytometer to determine the degree of cell expansion and separation, respectively. […] In order to determine the presence of the cell wall in this single cell cultures optical brightener was used. Calcafluor obtained from Sigma, which is a specific fluorescent dye for cellulose is used in this study, and the cellulose-Calcafluor complexing was observed by fluorescence microscopy (Zeiss Photomicroscope). […] Prior to use, the Calcafluor stain was centrifuged at 15,000 g for 2 min. to remove precipitates. A drop or two of the Calcafluor solution was added to the separated cells.

The subject of series [2] is Carrot suspension cultures. Briefly: Single cell production from carrot suspension cultures. Also noted: colony growth after plating single cells on M-medium: dose or concentration left out as unconfirmed. The procedure:
Carrot callus cultures have been initiated from the in vitro maintained Daucus carota L. ssp. sativus cv Sativa plants. Isolated leaf petiole explants were cultured on semi solid medium (Mashayekhi-Nezamabadi, 2000). Suspension cultures were initiated from the callus by transferring 50 mg of friable callus in 1.5 ml of LSBY2 medium (Appendix I) in 24 micro well plate. The fastest growing suspensions were then transferred to flasks with 1 ml suspension in 35 ml LSBY2 liquid medium. The cultures were maintained in diffused light in a 7 day sub culture cycle.
A 1.5-ml diluted single cell cultures were plated on M-medium (Appendix II) in 15×100 Petri-plates and spread out using the loop. Untreated carrot suspension aggregates were also diluted to the same density and plated similarly to compare the growth responses between these cultures.
LSBY2 medium consists of Murashige and Skoog macro and micro-salts (Murashige and Skoog 1962) supplemented with 30 g sucrose (w/v), 100 mg/l myoinositol, 200 mg/l KH2PO4, 1 mg/l thiamine and […] 2,4-dichlorophenoxyacetic acid. The medium is adjusted pH 5.8 before autoclaving at 120° C. Suspension volume at the 7th day of culture, at stationary phase was used to initiate cultures. A 1-ml volume of carrot suspension inoculums is transferred into 50 ml LSBY2 medium and then the cultures were placed on shakers at 150 rpm in the dark at 28° C. The MTI compounds used were added along with the fresh medium at the culture initiation cycle.
A regenerable carrot cryopreserved line (D2-40-018) was thawed and cultured in Linsmeier-Skoog (LS) medium (Nagata, T., Nemoto, Y., and Hasezawa, S. (1992) Int. Rev. Cyto 132, 1-30). Medium salts were purchased from PhytoTechnology Laboratories, Catalog #L689. An actively growing suspension line was established within a week, and the maintenance line was sub-cultured by transferring 2 ml PCV to 58 ml of LS BY2 suspension medium at 28° C. on an orbital shaker (Innova-3300) at 125 rpm under diffused light on a 7 day culture cycle.

Series [3] has as its system JTNT1 tobacco cell suspension cultures. Briefly: Single cell production, growth and viability of JTNT1 suspension with microtubule inhibitors in 24-well plates, glycerol medium. The source says:
JTNT1 Tobacco Suspension Cultures. […] Furthermore, Suc stabilizes preformed microtubules, making an examination of the effects of MTIs on preformed microtubules unfeasible. In addition, sucrose increases solution viscosity substantially, and tubulin polymerization is altered at least in part by slowed dimer and polymer diffusion rates. Thus, it was important to have low or no sucrose in medium where the single cell production. Thus, a new JTNT1 line habituated in Glycerol was developed for this study.
Each of the 24 well contained 1 ml of JTNT1 suspension. The 24-well plates were kept on an Innova 4900 Multi Environmental Shaker with special clamps and harnesses to allow stacking of plates up to 6 plates high. The plates were rotated at a speed of 130 rpm and 25° C. in dark.
Single Cell Production. Each compound was dissolved in dimethyl sulfoxide (DMSO) to provide 0.5 Molar stock solutions. One ml of JTNT1 suspension (1 ml PCV/20 ml tobacco media) was added to each well of the 24 well plates. To each well an individual chemical was added to achieve the desired concentrations (at 1 μM, 3 μM, and 10 μM). The cultures were allowed to grow for 7 days on the Innova Shaker. Each day turbidity measurements was taken on each well using a SpectraMax M2^e by Molecular devices (set at 600 absorbance, with 5 readings taken per well). On day 7, cells were observed using the Leica 5000 inverted confocal microscope for formation of single cells and cell viability.

Series [4] deals with NT1 tobacco cell growth. Briefly: Effects of MTI on NT1 tobacco cell growth and single cell production in glycerol medium. The class given is cell-based. The procedure:
The effects of Microtubule inhibitors (MTI) on tobacco cell growth in suspension culture were examined. […] Both the control and MTI-containing flasks contained a final concentration of 0.5-0.1% (v/v) DMSO. The growth of these chemicals was evaluated in EP12 medium for BY2 cells and NT1B medium for BTI-NT1 cells were the carbon source is substituted with 3% glycerol. The response of these cells was compared with the same medium composition but with 3% sucrose as the Carbon source.

Like-named read-outs stand apart in the source and are kept apart here.

Consider 2 compounds from patent US8206983B2, “In vitro methods for the induction and maintenance of plant cell lines as single suspension cells with intact cell walls” (Dow AgroSciences, LLC., priority 2006, dated 2012).

For `CCOC(=O)COc1nn(-c2ccccc2)c(-c2ccccc2)c1Cl` [DAS-PMTI-1], the “potency relative to colchicine in affecting the growth of the cultures” value in series [1] is reported as 100-1000 ×. The cell growth entry in series [1] (0.5 mM) was “affected very significantly”. In series [1] (0.5 mM, after 7 days of treatment), the cell death entry is recorded as “considerable cell death”. The cell segregation entry in series [1] (all the cell suspension types tested) is listed as “partial segregation of cells with general spherical shape”. In series [2], the “character of single cell production” value is “assorted cell shapes”. For the same compound, the “biomass versus respective controls” value in series [3] (1 uM, sucrose or glycerol medium) is given as “did not reduce the biomass of the cells significantly”. In addition, in series [4], the “concentrations causing inhibition of mitosis, and cell death” value was “over 100 nM”; the “threshold of tobacco cell growth inhibition” value is on record as around 50 nM. Further, the “micro-nuclei in single cells (microscopic observations)” value in series [4] (25 nM) was “did not show the presence of micro-nuclei”. In addition, the “fresh weights versus controls during the stationary phase” value in series [4] (25 nM (sentence ends with 50 nM), 3% glycerol) was “slightly greater”. Moreover, the “growth rate of the cells” value in series [4] (25 nM, over a period of 10 days) is “not lowering the growth rate”. Also, in series [4] (0.5-1.0 mM), the effect on growth result was “complete inhibition and cell death”. For the same compound, in series [4] (0.5-1.0 mM, from culture initiation), the “time to complete inhibition and cell death” value is recorded as at most 3 days. Also, the “concentration effective for the production of single cells” value in series [4] (glycerol as total carbon source, NT1 cells) was 0.005 to 0.025 µM.

As to `COc1cc2c(c(OC)c1OC)-c1ccc(OC)c(=O)cc1[C@@H](NC(C)=O)CC2` [Colchicine], the “cell expansion and separation” value in series [1] (0.5 mM colchicine, all the other cell suspensions tested) is recorded as “partially occurred”. For the same compound, the “character of single cell production” value in series [2] is “homogenous production of single cells”. In addition, the “time of single cell production” value in series [2] (1 mM) was 3 to 7 days. In addition, the “nuclear ploidy of single cells” value in series [2] (1 mM, 14-21 days of continuous treatments) is on record as “nuclear polyploidy”. Moreover, the “viability by fluorescein diacetate stain” value in series [2] (1 mM, 4 days and 11 days) was “very active and viable”. In series [2] (1 mM, cultures up to 14 days), the “frequency of nuclear polyploidy” value is listed as below 1%. In addition, in series [2] (1 mM, up to 28 days), the “nuclei of super single cells” value is listed as “extensive lobed nuclei”. In addition, in series [2] (7 days in colchicine, 4 weeks growth in the dark), the “colony growth after plating single cells on M-medium” value is “several discrete colonies”. In addition, in series [3], the “concentration necessary to produce single cells, lower end of range” value is at least 50 µM and the “concentration necessary to produce single cells, upper end of range” value is on record as at most 2 mM. In addition, in series [3] (NT1B medium with 3% glycerol), the “increase in diameter of single cells” value is 5 fold. For the same compound, the “concentration effective for the production of single cells” value in series [4] was 250 to 500 µM.
